{"source": "patent US11452731B2", "about": "“Method of treating and preventing loss of cognition” (ENDORECHERCHE, INC., priority 2009, dated 2022)", "key": {"[1]": {"system": "ZR-75-1 human breast cancer xenografts", "experiment": "Growth and response of human ZR-75-1 breast tumor xenografts in estrone-supplemented OVX nude mice, DHEA and/or EM-800 for 9.5 months (Example 1)", "format": "in vivo", "details": "for Inhibition of estrone-stimulated ZR-75-1 tumor size / Category of response: Complete (%) / Category of response: Complete (Number) / Category of response: Partial (%) / Category of response: Partial (Number) / Category of response: Progression (%) / Category of response: Progression (Number) / Category of response: Stable (%) / Category of response: Stable (Number) / Average tumor weight at end of experiment: 9.5 months; for Category of response: Complete (%) / Category of response: Complete (Number) / Category of response: Partial (%) / Category of response: Partial (Number) / Category of response: Progression (%) / Category of response: Progression (Number) / Category of response: Stable (%) / Category of response: Stable (Number) / Average tumor weight at end of experiment: E1-supplemented"}, "[2]": {"experiment": "Uterine, vaginal and body weight in estrone-supplemented OVX nude mice (Example 1)", "format": "in vivo", "experimental": "DHEA was dissolved in 50% ethanol 50% propylene glycol. […] Tumors were measured once a week with Vernier calipers."}, "[3]": {"details": "DHEA 0.3 mg, EM-800 15 μg, or EM-800 15 μg + DHEA 0.3 mg"}, "[4]": {"details": "DHEA 1.0 mg, EM-800 50 μg, or EM-800 15 μg + DHEA 1.0 mg"}, "[5]": {"details": "DHEA 3.0 mg, EM-800 100 μg, or EM-800 15 μg + DHEA 3.0 mg"}}}
{"smiles": "C[C@]12CC[C@H](O)CC1=CC[C@@H]1[C@@H]2CC[C@]2(C)C(=O)CC[C@@H]12", "note": "[DHEA, dehydroepiandrosterone]", "values": [{"measurement": "Inhibition of estrone-stimulated ZR-75-1 tumor size", "setting": "[1]; daily DHEA 0.3 mg or EM-800 15 μg", "value": 50.4, "unit": "%"}, {"measurement": "Inhibition of estrone-stimulated ZR-75-1 tumor size", "setting": "[1]; daily DHEA 1.0 mg or EM-800 50 μg", "value": 76.8, "unit": "%"}, {"measurement": "Inhibition of estrone-stimulated ZR-75-1 tumor size", "setting": "[1]; daily DHEA 3.0 mg or EM-800 100 μg", "value": 80.0, "unit": "%"}, {"measurement": "Inhibition of terminal tumor weight", "setting": "[1]; DHEA 0.3 mg", "value": 67, "unit": "%"}, {"measurement": "Inhibition of terminal tumor weight", "setting": "[1]; DHEA 1.0 mg", "value": 82, "unit": "%"}, {"measurement": "Inhibition of terminal tumor weight", "setting": "[1]; DHEA 3.0 mg", "value": 85, "unit": "%"}, {"measurement": "Category of response: Complete (%)", "setting": "[1]; [3]", "value": 28.6, "unit": "%"}, {"measurement": "Category of response: Complete (Number)", "setting": "[1]; [3]", "value": 4}, {"measurement": "Category of response: Partial (%)", "setting": "[1]; [3]", "value": "0 (0) %"}, {"measurement": "Category of response: Partial (Number)", "setting": "[1]; [3]", "value": "0 (0)"}, {"measurement": "Category of response: Progression (%)", "setting": "[1]; [3]", "value": 50.0, "unit": "%"}, {"measurement": "Category of response: Progression (Number)", "setting": "[1]; [3]", "value": 7}, {"measurement": "Category of response: Stable (%)", "setting": "[1]; [3]", "value": 21.4, "unit": "%"}, {"measurement": "Category of response: Stable (Number)", "setting": "[1]; [3]", "value": 3}, {"measurement": "Category of response: Complete (%)", "setting": "[1]; [4]", "value": 26.7, "unit": "%"}, {"measurement": "Category of response: Complete (Number)", "setting": "[1]; [4]", "value": 4}, {"measurement": "Category of response: Partial (%)", "setting": "[1]; [4]", "value": "0 (0) %"}, {"measurement": "Category of response: Partial (Number)", "setting": "[1]; [4]", "value": "0 (0)"}, {"measurement": "Category of response: Progression (%)", "setting": "[1]; [4]", "value": 53.3, "unit": "%"}, {"measurement": "Category of response: Progression (Number)", "setting": "[1]; [4]", "value": 8}, {"measurement": "Category of response: Stable (%)", "setting": "[1]; [4]", "value": 20.0, "unit": "%"}, {"measurement": "Category of response: Stable (Number)", "setting": "[1]; [4]", "value": 3}, {"measurement": "Category of response: Complete (%)", "setting": "[1]; [5]", "value": 20.0, "unit": "%"}, {"measurement": "Category of response: Complete (Number)", "setting": "[1]; [5]", "value": 3}, {"measurement": "Category of response: Partial (%)", "setting": "[1]; [5]", "value": "0 (0) %"}, {"measurement": "Category of response: Partial (Number)", "setting": "[1]; [5]", "value": "0 (0)"}, {"measurement": "Category of response: Progression (%)", "setting": "[1]; [5]", "value": 66.7, "unit": "%"}, {"measurement": "Category of response: Progression (Number)", "setting": "[1]; [5]", "value": 10}, {"measurement": "Category of response: Stable (%)", "setting": "[1]; [5]", "value": 13.3, "unit": "%"}, {"measurement": "Category of response: Stable (Number)", "setting": "[1]; [5]", "value": 2}, {"measurement": "Average tumor weight at end of experiment", "setting": "[1]; daily DHEA 0.3 mg, EM-800 15 μg, or EM-800 15 μg + DHEA 0.3 mg", "value": "0.37 ± 0.12", "unit": "g"}, {"measurement": "Average tumor weight at end of experiment", "setting": "[1]; daily DHEA 1.0 mg, EM-800 50 μg, or EM-800 15 μg + DHEA 1.0 mg", "value": "0.20 ± 0.06", "unit": "g"}, {"measurement": "Average tumor weight at end of experiment", "setting": "[1]; daily DHEA 3.0 mg, EM-800 100 μg, or EM-800 15 μg + DHEA 3.0 mg", "value": "0.17 ± 0.06", "unit": "g"}, {"measurement": "effect on body weight adjusted for tumor weight", "setting": "[2]; 9.5 months", "value": "No significant effect"}, {"measurement": "inhibition of the stimulatory effect of estrone on uterine weight", "setting": "[2]; highest dose of DHEA used", "value": 26, "unit": "%"}]}
